“Also recorded” adds a separate entry of the source.
Assays:
[1] = tested on: colon cancer CN1572P5 PDX; experiment: Tumor growth of colon cancer CN1572P5 PDX in non-HLA matched Hu-CD34 NSG mice; format: in vivo, mouse; settings: tumor growth curves over 21 days; 5-FU i.v. about 20 mg/kg Q7dx2; Avastin i.p. about 10 mg/kg twice a week, 5 doses
Method: To test whether the subject Hu-CD34 NSG™ mice with non-HLA matched PDX can be used to evaluate drug efficacy against the PDX, using clinically relevant standard-of-care (SOC) treatments, tumor growth curves over 21 days were obtained for a negative control/vehicle group, and two treatment groups using 5-FU and Avastin, respectively, against the colon cancer CN1572P5 PDX. Specifically, 5-FU was administered i.v. at a dose of about 20 mg/kg body weight, Q7d×2 (every 7 days, 2 total doses). Avastin was administered i.p. at a dose of about 10 mg/kg body weight, twice a week, 5 total doses. Vehicle (D5W) was administered i.v., Q7d×3.

[2] = tested on: breast cancer BR1126 PDX; experiment: Tumor growth of PD-L1+ TNBC BR1126 breast cancer PDX in non-HLA matched Hu-CD34 NSG mice; format: in vivo, mouse; settings: for tumor growth compared to the vehicle control: growth curves over 21 days, cisplatin i.v. about 2 mg/kg Q7dx3, Keytruda i.p. about 5-10 mg/kg Q5dx4
Method: Specifically, humanized NSG mice were engrafted with 5×10^6 of non-HLA matched PD-L1-positive breast cancer cell line BR1126 cells per mouse via s.c. inoculation. This can be done with the presence of matrigel. About 56.9% of the BR1126 cells expressed PD-L1.
(§1) Tumor growth curves over 21 days were obtained for a negative control/vehicle group, and two treatment groups using cisplatin and pembrolizumab (Keytruda), respectively, against the BR1126 PDX. Specifically, cisplatin was administered i.v. at a dose of about 2 mg/kg body weight, Q7d×3 (every 7 days, 3 total doses). Pembrolizumab (Keytruda) was administered i.p. at a dose of about 5-10 mg/kg body weight, Q5d×4 (every 5 days, 4 total doses). Vehicle (Saline) was administered i.p., Q5d×4.
Tumors from the Keytruda-treated mice were collected at the end of the study and examined for lymphocyte infiltration.

[3] = tested on: breast cancer cell line MDA-MB-231; experiment: Tumor growth of PD-L1+ MDA-MB-231 breast cancer model in non-HLA matched Hu-CD34 NSG mice; format: in vivo, mouse; settings: for tumor growth of MDA-MB-231 tumors: growth curves over 21 days, cisplatin i.v. about 2 mg/kg Q7dx2
Method: First, to determine if the checkpoint inhibitor pembrolizumab (Keytruda) is efficacious in the subject non-HLA matched PDX humanized NSG model, a PDX huNSG model was established according to the methods of the invention. […] This cell line expresses very high levels of PD-L1 on the tumor cell surface that can bind to PD-1 on T-cells and induce anergy—about 94.3% of the MDA-MB-231 cells expressed PD-L1. The tumor-engrafted humanized NSG mice were then treated either with vehicle, Cisplatin, or Prembrolizumab (Keytruda).
as §1, with “MDA-MB-231” for “BR1126”, “Q7d×2” for “Q7d×3”, “2” for “3”
At the termination of the growth study, peripheral blood of the experimental mice were collected and assayed for human CD19^+ B cells and human CD4^+ and CD8^+ T-cells.
Tumors were also collected and assayed for human CD4^+ and CD8^+ infiltrating T-cells.

[4] = tested on: CD45+CD8+ infiltrating T lymphocytes in PDX tumor samples; experiment: Immuno-staining of treated PDX tumor samples for CD45+CD8+ infiltrating T lymphocytes; format: in vivo, mouse; settings: compared to chemotherapy alone
Method: In a similar experiment, immuno-staining was conducted on PDX tumor samples treated by chemotherapy alone, anti-PD1 agent Keytruda, and anti-CTLA4 agent ipilimumab, for the presence of CD45^+CD8^+ infiltrating T lymphocytes.

[5] = tested on: lung cancer LG1306 PDX; experiment: Tumor growth of PD-L1+ LG1306 lung cancer PDX in non-HLA matched Hu-CD34 NSG mice; format: in vivo, mouse
Method: Specifically, humanized NSG mice were engrafted with 5×10^6 of non-HLA matched PD-L1-positive PDX lung cancer cell line LG1306 per mouse. About 89.1% of the LG1306 cells expressed PD-L1.
Tumor growth curves over 24 days were obtained for a negative control/vehicle group, and two treatment groups using pembrolizumab (Keytruda), with or without the anti-mitotic chemotherapeutic agent Decotaxol, against the LG1306 PDX. Specifically, Decetaxol, when present, was administered i.v. at a dose of about 10 mg/kg body weight, Q7d×4 (every 7 days, 4 total doses). Pembrolizumab (Keytruda) was administered i.p. at a dose of about 5 mg/kg body weight, Q5d×6 (every 5 days, 6 total doses). Vehicle (Saline) was administered i.p., Q5d×6.

[6] = tested on: non-small-cell lung cancer, melanoma, and renal-cell cancer; settings: 296 patients; cited from earlier work
[7] = Keytruda i.p. about 5-10 mg/kg Q5dx4

Compound	efficacy against the non-HLA matched colon cancer PDX (tumor volume) [1]	tumor growth compared to the vehicle control [2]	tumor growth of MDA-MB-231 tumors [3, 7]	presence of CD45+CD8+ infiltrating T lymphocytes in PDX tumor samples [4]	also measured
Avastin: clinically relevant standard-of-care (SOC) anti-cancer drug	effective	–	–	–	–
N.N.[Cl][Pt][Cl] [Cisplatin, cisplatin]	–	significantly reduced tumor growth	only marginally reduced the growth rate	–	–
O=c1[nH]cc(F)c(=O)[nH]1 [5-FU]	effective	–	–	–	–
Keytruda: anti-PD-1 antibody drug; highly selective, humanized IgG4-kappa monoclonal antibody against PD-1	–	significantly reduced tumor growth	delayed tumor growth significantly	strong presence	tumor lymphocyte infiltration compared to the vehicle treated mice ([2]; tumors collected at the end of the study): did not increase tumor infiltration; mice not responding ([5]; Keytruda alone): one of 10; tumor growth of LG1306 PDX compared to vehicle-treated controls ([5]; growth curves over 24 days, Keytruda i.p. about 5 mg/kg Q5dx6, Docetaxel i.v. about 10 mg/kg Q7dx4, all mice): reduced growth; also recorded: effective; tumor growth, non-responding mouse taken out of the calculations ([5]; one Keytruda non-responder excluded): significant decrease in tumor growth; time after start of treatment to significant tumor growth delay [3, 7]: ≤ 2 weeks; human T and B cells in peripheral blood and infiltrating T cells (TILs) in tumors versus other treatment groups ([3]; at termination of the growth study): absence of additional TILs
nivolumab: fully human IgG4 monoclonal antibody against PD-1	–	–	–	–	clinical response [6]: complete or partial responses
ipilimumab: anti-CTLA4 agent; FDA-approved CTLA-4 inhibitor for treating melanoma	–	–	–	strong presence	–
